The experiment relates to BDF1 mice, colon carcinoma 38 sc, T/C %. Nature of the experiment: NCI In Vivo Anticancer Drug Screen. Data for tumor model Colon Carcinoma 38 (subcutaneous) in B6D2F1 (BDF1) mice. Conditions: endpoint: median tumor weight (est.), higher = larger tumour. A digest of the protocol: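 T/C readout: treated group (T) measurement over vehicle control group (C) measurement. Endpoint is survival or tumor size in mice bearing a transplanted tumor.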

Setting [1] is: dose: 100.0 mg/kg/injection, schedule: Q07DX002 (ip), vehicle: saline with Tween-80.
The mark [2] stands for this setting: dose: 200.0 mg/kg/injection, schedule: Q07DX002 (ip), vehicle: saline with Tween-80.
The mark [3] stands for this setting: dose: 25.0 mg/kg/injection, schedule: Q07DX002 (ip), vehicle: saline.
Where [4] appears, read: dose: 50.0 mg/kg/injection, schedule: Q07DX002 (ip), vehicle: saline.
The mark [5] stands for this setting: dose: 100.0 mg/kg/injection, schedule: Q07DX002 (ip), vehicle: saline.
The mark [6] stands for this setting: dose: 25.0 mg/kg/injection, schedule: Q07DX002 (ip), vehicle: Klucel (hydroxypropylcellulose) (HPC).
[7] abbreviates: dose: 50.0 mg/kg/injection, schedule: Q07DX002 (ip), vehicle: Klucel (hydroxypropylcellulose) (HPC).
Setting [8] is: dose: 100.0 mg/kg/injection, schedule: Q07DX002 (ip), vehicle: Klucel (hydroxypropylcellulose) (HPC).
Setting [9] is: dose: 400.0 mg/kg/injection, schedule: Q07DX002 (ip), vehicle: Klucel (hydroxypropylcellulose) (HPC).
The mark [10] stands for this setting: dose: 12.5 mg/kg/injection, schedule: Q07DX002 (ip), vehicle: saline with Tween-80.
Setting [11] is: dose: 50.0 mg/kg/injection, schedule: Q07DX002 (ip), vehicle: saline with Tween-80.
Where [12] appears, read: dose: 400.0 mg/kg/injection, schedule: Q07DX002 (ip), vehicle: saline with Tween-80.
Setting [13] is: dose: 12.5 mg/kg/injection, schedule: Q07DX002 (ip), vehicle: Klucel (hydroxypropylcellulose) (HPC).
[14] abbreviates: dose: 200.0 mg/kg/injection, schedule: Q07DX002 (ip), vehicle: Klucel (hydroxypropylcellulose) (HPC).
[15] abbreviates: dose: 25.0 mg/kg/injection, schedule: Q07DX002 (ip), vehicle: saline with Tween-80.

Several values for one entry are separate records, joined by “and”; a condition that tells them apart may be missing. Equal entries are not always repeated. Inconclusive results are not listed. *1 amine or outer side, *2 acyl side, *3 side chain or, on linkers, in order; H or OH if unused. Where a SMILES comes first, the peptide text is derived from it. Bridges are numbered along the chain shown (N, C = ends). Roman numbers before positions name the chains, in order. [ ]: non-standard residue; d: D form. Actinocin(9to1) = Cc1c2oc3c(C)ccc(C(=O)[*:1])c3nc-2c(C(=O)[*:2])c(N)c1=O; aThr = C[C@H](O)[C@H](N)C(=O)O; NMeV = CN[C@H](C(=O)O)C(C)C; Sar = CNCC(=O)O

In PubChem BioAssay AID212 (DTP/NCI, 2004) one finds T/C data, which are given here for 18 molecules.

For `Cc1cc(NCCCCCCNc2cc(C)nc3cc(N(C)C)ccc23)c2ccc(N(C)C)cc2n1`, the T/C is 107 % of control (dose: 6.0 mg/kg/injection, schedule: Q07DX002 (ip), vehicle: distilled water + Tween-80 + alcohol); 99 % of control (dose: 12.5 mg/kg/injection, schedule: Q07DX002 (ip), vehicle: distilled water + Tween-80 + alcohol); 95 % of control (dose: 25.0 mg/kg/injection, schedule: Q07DX002 (ip), vehicle: distilled water + Tween-80 + alcohol); 105 % of control (dose: 50.0 mg/kg/injection, schedule: Q07DX002 (ip), vehicle: distilled water + Tween-80 + alcohol); 90 % of control (dose: 100.0 mg/kg/injection, schedule: Q07DX002 (ip), vehicle: distilled water + Tween-80 + alcohol).
In the case of `Cc1ccc(-c2cc(=O)c3cccc(CC(=O)O)c3o2)cc1`, the T/C by setting is: under setting [1], 83 % of control; under setting [2], 50 % of control.
For the molecule `OC(CCl)CN1CC[N+]2(CC1)CC[N+]1(CCN(CC(O)CCl)CC1)CC2` (configuration not stated), the T/C is, setting by setting: (dose: 12.5 mg/kg/injection, schedule: Q07DX002 (ip), vehicle: saline) 73 % of control; (dose: 12.5 mg/kg/injection, schedule: Q07DX003 (ip), vehicle: saline) 90 % of control; under setting [3], 124 % of control; (dose: 25.0 mg/kg/injection, schedule: Q07DX003 (ip), vehicle: saline) 91 % of control; under setting [4], 90 % of control and 99 % of control; (dose: 50.0 mg/kg/injection, schedule: Q07DX003 (ip), vehicle: saline) 76 % of control. Also, the T/C under setting [5] was 60 % of control; the T/C (dose: 100.0 mg/kg/injection, schedule: Q07DX003 (ip), vehicle: saline) was 57 % of control; the T/C (dose: 200.0 mg/kg/injection, schedule: Q07DX003 (ip), vehicle: saline) is 54 % of control; the T/C (dose: 400.0 mg/kg/injection, schedule: Q07DX003 (ip), vehicle: saline) is 44 % of control; the T/C (dose: 800.0 mg/kg/injection, schedule: Q07DX002 (ip), vehicle: saline) was 30 % of control.
Take `Cn1c(N)c(C(=O)/C=C/c2ccccc2)c(=O)n(C)c1=O`: the T/C was 114 % of control under setting [6], 112 % of control under setting [7], 109 % of control under setting [8] and 123 % of control under setting [9].
Regarding `Cc1c2oc3c(C)ccc(C(=O)N[C@@H]4C(=O)N[C@H](C(C)C)C(=O)N5CCC[C@H]5C(=O)N(C)CC(=O)N(C)[C@@H](C(C)C)C(=O)O[C@H]4C)c3nc-2c(C(=O)N[C@@H]2C(=O)N[C@H](C(C)C)C(=O)N3CCC[C@H]3C(=O)N(C)CC(=O)N(C)[C@@H](C(C)C)C(=O)O[C@H]2C)c(N)c1=O` (I: [aThr][dV]P[Sar][NMeV] / II: [aThr][dV]P[Sar][NMeV]; ester I:1-I:C, II:1-II:C; linker I:N-II:N via Actinocin(9to1)), the T/C is, setting by setting: (dose: 100.0 micrograms/kg/injection, schedule: Q07DX002 (ip), vehicle: saline + alcohol) 104 % of control; (dose: 200.0 micrograms/kg/injection, schedule: Q07DX002 (ip), vehicle: saline + alcohol) 77 % of control; (dose: 400.0 micrograms/kg/injection, schedule: Q07DX002 (ip), vehicle: saline + alcohol) 19 % of control.
In the case of `[O-][n+]1c(CN2CCCCC2)nc2cccc3c2c1-c1ccccc1-3`, the T/C is 66 % of control under setting [10]; 47 % of control under setting [11]; 57 % of control under setting [2]; 72 % of control and 81 % of control under setting [12].
Consider `CC1(C)CC(=O)C(CSC(=O)c2ccccc2)C(=O)C1`, for which the T/C reads like this: under setting [13], 120 % of control and 104 % of control; under setting [6], 113 % of control and 104 % of control; under setting [8], 88 % of control.
As for `Cc1ccc(NCCN(C)C)c2c(=O)c3cc(O)ccc3sc12`, the T/C is 42 % of control and 48 % of control under setting [8]; 17 % of control under setting [14].
For `C[C@H](N)C(=O)N[C@@H]1[C@H]2C(=C(O)C[C@@H](O)[C@@H]2O)C(=O)O[C@]1(C)C(Cl)Cl`, the T/C (dose: 0.37 mg/kg/injection, schedule: Q07DX002 (ip), vehicle: Klucel (hydroxypropylcellulose) (HPC)) was 97 % of control; the T/C (dose: 0.38 mg/kg/injection, schedule: Q07DX002 (ip), vehicle: Klucel (hydroxypropylcellulose) (HPC)) is 75 % of control; the T/C (dose: 3.0 mg/kg/injection, schedule: Q07DX002 (ip), vehicle: Klucel (hydroxypropylcellulose) (HPC)) is 53 % of control and 59 % of control; the T/C (dose: 6.0 mg/kg/injection, schedule: Q07DX002 (ip), vehicle: Klucel (hydroxypropylcellulose) (HPC)) is 30 % of control and 40 % of control.
On to `O=C(Nc1ccccc1C(=O)O)c1cc([N+](=O)[O-])cc([N+](=O)[O-])c1`, for which the T/C was 110 % of control and 88 % of control under setting [15]; 78 % of control and 85 % of control under setting [11]; 69 % of control under setting [1]; 83 % of control and 86 % of control under setting [2].
On to `C=C(C)C(=NC(C)(C)C)Nc1ccccc1`, for which the T/C was 100 % of control under setting [10]; 101 % of control under setting [15]; 103 % of control under setting [11]; 108 % of control under setting [2]; 100 % of control under setting [12].
Regarding `c1csc(C[N+]23CN4CN(CN(C4)C2)C3)c1`, the T/C was 77 % of control under setting [3]; 108 % of control under setting [4]; 81 % of control under setting [5]; 97 % of control (dose: 200.0 mg/kg/injection, schedule: Q07DX002 (ip), vehicle: saline); 112 % of control (dose: 400.0 mg/kg/injection, schedule: Q07DX002 (ip), vehicle: saline).
As to `CC/C(=C(/CC)c1ccc(O)cc1)c1ccc(O)cc1`, the T/C is 96 % of control (dose: 12.5 mg/kg/injection, schedule: Q07DX003 (ip), vehicle: saline with Tween-80); 153 % of control (dose: 25.0 mg/kg/injection, schedule: Q07DX003 (ip), vehicle: saline with Tween-80); 76 % of control (dose: 100.0 mg/kg/injection, schedule: Q07DX003 (ip), vehicle: saline with Tween-80); 179 % of control (dose: 200.0 mg/kg/injection, schedule: Q07DX003 (ip), vehicle: saline with Tween-80).
Turning to `O=NN(CCCl)C(=O)NC1OC(CO)C(O)C(O)C1O` (configuration not stated), the T/C runs as follows: (dose: 2.5 mg/kg/injection, schedule: Q07DX002 (ip), vehicle: saline) 114 % of control and 96 % of control; (dose: 8.0 mg/kg/injection, schedule: Q07DX002 (ip), vehicle: saline) 88 % of control and 92 % of control; (dose: 16.0 mg/kg/injection, schedule: Q07DX002 (ip), vehicle: saline) 34 % of control and 58 % of control.
For the molecule `Nc1nc2c(C(=O)N3CCCC3)nnn2c2ccccc12`, the T/C was 98 % of control under setting [10], 105 % of control under setting [15], 100 % of control under setting [11] and 116 % of control under setting [1].
`O=C(Nc1cccc2c(OC(=O)C(Cl)Cl)c(N=Nc3ccc(S(=O)(=O)Nc4nccs4)cc3)cc(N=Nc3ccc(S(=O)(=O)Nc4nccs4)cc3)c12)C(Cl)Cl` (tested in a mixture with another compound): the T/C runs as follows: (dose: 6.25 mg/kg/injection, schedule: Q07DX002 (ip), vehicle: saline with Tween-80) 91 % of control; under setting [10], 100 % of control; under setting [15], 77 % of control; under setting [11], 92 % of control; under setting [1], 88 % of control.
As for `O=C(Nc1ccc(N=C=S)cc1Cl)c1cc(Cl)cc(Cl)c1O`, the T/C under setting [13] was 64 % of control and 65 % of control; the T/C under setting [7] was 80 % of control and 87 % of control; the T/C under setting [8] is 79 % of control.
`Cc1ccc(C2NC(=O)c3ccccc3N2)s1` (configuration not stated): the T/C under setting [6] was 99 % of control; the T/C under setting [7] was 92 % of control; the T/C under setting [8] was 103 % of control; the T/C under setting [14] is 92 % of control; the T/C under setting [9] is 84 % of control; the T/C (dose: 800.0 mg/kg/injection, schedule: Q07DX002 (ip), vehicle: Klucel (hydroxypropylcellulose) (HPC)) is 90 % of control.
